Data on three compounds can be found in publication PMC7269337, “Spiro-containing derivatives show antiparasitic activity against Trypanosoma brucei through inhibition of the trypanothione reductase enzyme” (PLoS Neglected Tropical Diseases, 2020).

Molecules are shown by their SMILES. Converted amounts (≈) assume the structure as drawn. Where two headings read alike, the source gives them in different places.

The target in data set [1] is T1, TbTR (Trypanosoma brucei brucei, UniProt P39051).
T1 construct: the gene coding for the enzyme (aa 1–492) was codon optimized for the expression in E.coli; made in house; host or cells: E. coli BL21(DE3)
The data set can be described thus: TbTR DTNB absorbance assay. The format is biochemical. The procedure:
(§1) Compounds from 10 mM stock solutions were transferred to assay plates by acoustic transfer (EDC Biosystems, Milmont, CA). The TbTR luminescent assay was performed in 384-well white plate (Greiner Bio One, Frickenhausen, Germany). The following components were added to the plates to a final volume of 30 μL: 0.1 nM TR, 20 μM NADPH, 10 μM TS2 in 50 mM HEPES (pH 7.4), 40 mM NaCl, 0.01% BSA. After 60 min of incubation at room temperature the residual amount of NADPH was measured by addition of an equal volume of NADPH-Glo as per the manufacturer’s protocol and the luminescent signal was acquired by an EnVision plate reader (PerkinElmer, Waltham, MA). […] After 10 minutes of incubation at room temperature the absorbance signal (412 nm) was detected using the Safire2 plate reader (Tecan, Switzerland). […] Results were analyzed using Prism software (GraphPad, San Diego, CA) and Vortex (Dotmatics, Bioshops Stortford, UK). […]
(§2) L. infantum TR was cloned and purified as previously described.[1] […] After 60 min of incubation at room temperature, an equal volume of NADPH-Glo reagent was added and the luminescent signal was acquired by an EnVision plate reader […]
(§3) after 30 minute (Figure S1) according to the reagent data sheet. […] The absorbance signal (412 nm) was acquired 15 minutes post incubation at room temperature using the plate reader (Safire2, Tecan, Switzerland). […]

Data set [2] concerns the target T1, TbTR. The data set can be described thus: SPR binding assay on immobilized TbTR. Here is the method: Surface Plasmon resonance (SPR) interaction analysis were performed using a Biacore T200 (GE Healthcare, Uppsala, Sweden). TbTR was immobilized on a CM4 chip by amine coupling according to manufacturer’s instructions (Amine Coupling Kit, GE Healthcare, Uppsala, Sweden). Briefly, the surface of the sensor chip was activated for 7 minutes using a mixture of 0.1 M N-hydroxy succinimide (NHS) and 0.4 M N-ethyl-N’-[3-dimethyl-aminopropyl] carbodiimide (EDC) then 30 μg/ml of […] in 10 mM sodium acetate (pH 4.5) was injected for 360 s at 10 μl/min, finally residual activated groups on the surface were blocked by a 7 min injection of 1 M ethanolamine (pH 8.5). A reference channel for background subtraction was prepared by activation with EDC/NHS mixture (0.1 M/0.4 M as per ligand immobilization), followed by blocking with 1 M ethanolamine. The binding of the selected hit to the immobilized ligand was evaluated by a multi-cycle kinetic procedure in PBS-P (GE Healthcare Lifescience) supplemented with 2% DMSO (Sigma Aldrich). The analyte was injected for 60 s at 50 μl/min until equilibrium and dissociation monitored for 600 s. A standard curve of DMSO was included for solvent correction.
Biomolecular binding events were reported as changes of resonance units (RUs) over time. The data were analyzed by the Biacore T200 evaluation software. The sensorgrams were obtained, by subtracting the signals of the reference channel to those of the TbTR-immobilized one, and corrected for DMSO interference using the DMSO standard curve. The binding affinity was evaluated from kinetic parameters (koff/kon) calculated according to a heterogeneous ligand binding model.
A general note: SPR reads the build-up and loss of mass on a sensor chip optically.

The target in data set [3] is T2, TbTR (Trypanosoma brucei trypanothione reductase) (Trypanosoma brucei brucei, UniProt P39051).
T2 construct: the gene coding for the enzyme (aa 1–492) was codon optimized for the expression in E.coli; made in house; host or cells: E. coli BL21(DE3)
The data set can be described thus: TbTR luminescent (NADPH-Glo) enzyme assay. The format is biochemical. The procedure: Compounds from 10 mM stock solutions were transferred to assay plates by acoustic transfer (EDC Biosystems, Milmont, CA). The TbTR luminescent assay was performed in 384-well white plate (Greiner Bio One, Frickenhausen, Germany). The following components were added to the plates to a final volume of 30 μL: 0.1 nM TR, 20 μM NADPH, 10 μM TS2 in 50 mM HEPES (pH 7.4), 40 mM NaCl, 0.01% BSA. After 60 min of incubation at room temperature the residual amount of NADPH was measured by addition of an equal volume of NADPH-Glo as per the manufacturer’s protocol and the luminescent signal was acquired by an EnVision plate reader (PerkinElmer, Waltham, MA). The DTNB assay was performed in a final volume of 50 μl by addition of 2 nM TR, 100 μM NADPH, 4 μM TS2 and 200 μM DTNB in 40 mM HEPES (pH 7.4), 1 mM EDTA, 0.01% BSA and 0.05% Tween-20. After 10 minutes of incubation at room temperature the absorbance signal (412 nm) was detected using the Safire2 plate reader (Tecan, Switzerland). The human glutathione reductase (hGR) activity assay was carried out as described by Turcano et al.[23]. Results were analyzed using Prism software (GraphPad, San Diego, CA) and Vortex (Dotmatics, Bioshops Stortford, UK). Dose-response curves were fitted by four-parameter logistic regression.
The TbTR enzyme enzyme was produced in bacteria, purified as described in materials and methods and used to develop an in vitro enzyme assay (Fig 1A). To measure TbTR activity, a luminescent assay was optimized starting from a design that we previously described. First we determined the linearity range of the NADPH detection signal via NADPH-Glo kit that was determined to be 50 μM (Fig 1B). The Km (apparent) value for TS2 was calculated using 1 nM TR in the presence of serial dilutions of TS2 and a fixed concentration of 40 μM NADPH. The luminescence signal was detected in the first 10 min of reaction. NADPH depletion, calculated using the NADPH standard curve (Fig 1B), allowed the determination of the apparent Km values by the Michaelis-Menten kinetic (Fig 1C). The Km for TS2 was calculated to be 4.0 ± 0.7 μM. To further optimize the assay, a time course experiment was carried out. Different concentrations of the TbTR enzyme, ranging from 0.025 to 0.2 nM, were used, while the TS2 concentration was fixed near the Km value (5 μM) and the NADPH concentration was 20 μM that falls within the linearity range observed for the NADPH standard curve. 0.1 nM TbTR at and 60 min of incubation were judged to be an optimal compromise for preserving the reaction linearity along with a good signal to background ratio (Fig 1D) and allowing a suitable time for the screening operations. The final conditions used for the screening were: 0.1 nM TbTR, 5 μM TS2, 20 μM NADPH with the incubation time of the reaction being 60 minutes.

The next data set can be described thus: physchem. As to conditions: pH 7.4, aqueous buffer. The format is physicochemical. Here is the method:
The solubility testing was carried out as previously reported.

In data set [4] the target is T3, Leishmania infantum TR (LiTR) (Leishmania infantum, UniProt A4HSF7).
T3 construct: made in house
The data set can be described thus: LiTR luminescent (NADPH-Glo) enzyme assay. The format is biochemical. The text has this:
S5 Fig. inhibition of Leismania infantum trypanothione reductase (LiTR) by Compound 1. Each experimental point is the average of three replicates.
The following method was used to determine the inhibition of the LiTR activity:
L. infantum TR was cloned and purified as previously described.[1] Bovine serum albumin (BSA), NADPH, auranofin, hGR, oxidized glutathione (GSSG) and DTNB were purchased from Sigma-Aldrich (St. Louis, MO); oxidized trypanothione (TS2) was purchased from Bachem (Bubendorf, Switzerland); the NADPH-Glo kit was purchased from Promega (Madison, WI, U.S.A.). Compounds, dissolved in DMSO, were transferred to 384-well white plates (Greiner Bio One, Frickenhausen, Germany) using the acoustic droplet ejection technology (ATS-100, EDC Biosystems, U.S.A.) to reach the desired final concentration. […] After 60 min of incubation at room temperature, an equal volume of NADPH-Glo reagent was added and the luminescent signal was acquired by an EnVision plate reader […]
after 30 minute (Figure S1) according to the reagent data sheet. […] The absorbance signal (412 nm) was acquired 15 minutes post incubation at room temperature using the plate reader (Safire2, Tecan, Switzerland). Results were analyzed using Prism software (GraphPad, San Diego, CA, U.S.A.) and Vortex (Dotmatics, Bioshops Stortford, UK). […]

Data set [5] deals with endogenous TbTR activity in T. brucei lysate. The data set can be described thus: T. brucei lysate thiol formation assay. The format is biochemical, Trypanosoma brucei. As to conditions: 200 μM NADPH, 50 μM TS2, 100 μM DTNB, 30 min, absorbance 412 nm; read-out: IC50, inhibition of endogenous TbTR activity in T. brucei lysate. Here is the method: T. brucei parasites were grown on IMDM medium (Iscove’s Modified Dulbecco’s Medium) supplied with 3 gr/L sodium bicarbonate, 136 mg/L hypoxanthine, 39 mg/L thymidine, 28.2 mg/L bathocuprione sulfonic acid, 0.5 mM cysteine, 0.001% β-mercaptoethanol and 10% heat-inactivated Calf serum. 1.5 x 10^6 compound treated parasite per well were lysed using 1 mM EDTA, 40 mM Hepes pH 7.5, 50 mM Tris-HCl pH 7.5, 2% Triton-X100 and protease inhibitors cocktail (Sigma). 200 μM NADPH, 50 μM TS2, 100 μM DTNB were added in each well to trigger the TbTR activity. After 30 min incubation the absorbance signal (412 nm) was detected using the Safire2 plate reader (Tecan, Switzerland).

Another data set relates to T. brucei parasites. In words: T. brucei growth inhibition assay (CellTiter-Glo). The format is cell-based. As to conditions: Trypanosoma brucei, 24 h treatment, read-out: IC50, anti-proliferative activity on T. brucei culture. The procedure:
The anti-proliferative effect of testing compounds on T. brucei in vitro cultures was carried out by incubating compounds with 1.5 × 10^3 parasite per well followed by 24 incubation at 37°C and 5% CO2. The parasite viability was measured by CellTiter-Glo according to the manufacturer's instructions.
Background: ATP-based viability assays read luminescence as a measure of living cells.

The target in data set [6] is T4, human glutathione reductase (hGR) (Homo sapiens, UniProt P00390).
T4 construct: purchased Sigma-Aldrich
T4 sequence (P00390 44-522): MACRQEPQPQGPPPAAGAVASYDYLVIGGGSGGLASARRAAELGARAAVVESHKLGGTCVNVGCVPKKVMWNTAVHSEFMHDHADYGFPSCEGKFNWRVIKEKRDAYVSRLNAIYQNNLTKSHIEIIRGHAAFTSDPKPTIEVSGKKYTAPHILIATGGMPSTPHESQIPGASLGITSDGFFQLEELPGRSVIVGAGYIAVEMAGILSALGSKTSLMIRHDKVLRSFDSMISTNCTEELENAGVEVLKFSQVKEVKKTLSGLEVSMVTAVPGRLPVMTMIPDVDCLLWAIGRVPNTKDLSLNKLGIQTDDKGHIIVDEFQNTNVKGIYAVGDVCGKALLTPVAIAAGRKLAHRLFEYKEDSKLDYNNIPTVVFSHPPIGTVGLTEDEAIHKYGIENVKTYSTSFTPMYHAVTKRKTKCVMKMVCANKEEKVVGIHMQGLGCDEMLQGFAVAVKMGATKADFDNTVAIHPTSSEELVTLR
The data set can be described thus: human glutathione reductase (hGR) activity assay. The format is biochemical. Here is the method: as §1, §2, §3

In data set [7] the target is T1, TbTR. The data set can be described thus: TS2 competition assay (TbTR luminescent assay). The format is biochemical. As to conditions: 5 or 25 μM compound. Here is the method: Competition experiments were performed at two different compound concentrations (5 μM and 25 μM) by TbTR luminescent assay. The apparent Km values for TS2 in presence of 20 μM NADPH were calculated using 1 nM TR after 10 min incubation. […] The luminescent signal was measured using the EnVision plate reader (PerkinElmer, USA). IC50, Vmax, and Km values were calculated using Prism software (GraphPad, San Diego, CA).

Setting [8] is: TbTR assay IC50, luminescence assay, n=4, dose-response from 85 μM.

T1 sequence (P39051 whole entry, the tested form may be a part): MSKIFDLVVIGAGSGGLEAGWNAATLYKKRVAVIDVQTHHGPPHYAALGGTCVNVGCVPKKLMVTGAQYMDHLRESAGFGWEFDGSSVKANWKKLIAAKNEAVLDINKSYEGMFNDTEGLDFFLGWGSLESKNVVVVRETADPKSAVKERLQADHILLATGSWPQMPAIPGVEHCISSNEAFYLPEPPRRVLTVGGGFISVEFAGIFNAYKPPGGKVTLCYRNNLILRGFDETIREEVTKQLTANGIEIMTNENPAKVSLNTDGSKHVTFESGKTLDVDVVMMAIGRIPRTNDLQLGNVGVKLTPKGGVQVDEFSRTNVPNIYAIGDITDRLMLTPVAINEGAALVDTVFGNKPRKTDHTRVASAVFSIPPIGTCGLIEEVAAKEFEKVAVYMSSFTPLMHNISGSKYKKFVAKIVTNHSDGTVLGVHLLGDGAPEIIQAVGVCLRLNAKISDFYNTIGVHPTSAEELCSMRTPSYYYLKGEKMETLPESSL
T2 sequence (P39051 whole entry, the tested form may be a part): as above
T3 sequence (A4HSF7 entry or part of it): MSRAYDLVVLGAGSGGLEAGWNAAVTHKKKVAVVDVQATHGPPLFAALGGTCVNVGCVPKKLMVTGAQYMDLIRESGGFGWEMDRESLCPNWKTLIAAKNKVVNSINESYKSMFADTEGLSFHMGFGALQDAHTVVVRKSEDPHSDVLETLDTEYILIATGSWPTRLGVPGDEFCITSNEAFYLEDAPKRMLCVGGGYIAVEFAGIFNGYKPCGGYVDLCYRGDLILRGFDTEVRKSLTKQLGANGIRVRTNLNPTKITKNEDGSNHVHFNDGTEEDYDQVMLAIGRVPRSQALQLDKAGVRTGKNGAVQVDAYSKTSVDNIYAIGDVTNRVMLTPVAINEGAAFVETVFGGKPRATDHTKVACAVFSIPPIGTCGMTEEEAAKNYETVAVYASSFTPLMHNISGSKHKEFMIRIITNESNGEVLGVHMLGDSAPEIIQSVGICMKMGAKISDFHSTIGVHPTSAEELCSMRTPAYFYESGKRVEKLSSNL

Broadly, the IC50 is the midpoint of a concentration-inhibition curve. As usually defined, the Kd is the free concentration of one partner at which half of the binding sites on the other are occupied at equilibrium, for simple one-to-one binding. A low value points to tighter binding. As usually defined, the koff is the first-order rate constant of dissociation. Broadly, the solubility is how much of the substance goes into solution per volume. Higher therefore signals a readily soluble substance. `CN(CCCN1CN(c2ccccc2)C2(CCN(CC[C@@H]3CC[C@H]4C[C@@H]3C4(C)C)CC2)C1=O)CC1(O)CCN(C(=N)N)CC1` [Compound 1, 4-(((3-(8-(2-((1S,2S,5S)-6,6-dimethylbicyclo[3.1.1]heptan-2-yl)ethyl)-4-oxo-1-phenyl-1,3,8-triazaspiro[4.5]decan-3-yl)propyl)(methyl)amino)methyl)-4-hydroxypiperidine-1-carboximidamide]: the IC50 against TbTR [1] worked out at 966 ± 68 nM; in [3] (TbTR IC50, luminescence assay), 3.5 ± 2.2 µM; in [3] (setting [8]), 3.5 ± 2.19 µM; in [4] it was 3.8 ± 0.6 µM; in data set [5], 5.7 ± 0.6 µM; in the data set with T. brucei parasites it was 2200 ± 2400 nM. This compound displayed an IC50 in [6] above 50 µM. On TbTR [2], this compound had a Kd of 10.3 ± 2.9 µM. For the same compound, the koff at TbTR [2] was determined as 0.035 ± 0.014 s⁻¹. In addition, the “binding to TbTR (reversibility)” value on TbTR [2] (SPR, 0.3125 to 20 μM) is reported as “reversible binding”. This compound also gave a solubility in the data set “physchem” of 185 µM (≈ 113 µg/mL). Moreover, in data set [6], the “activity against human glutathione reductase (hGR)” value was “no activity was detected”. Also, the “change in calculated Vmax” value at TbTR [7] is listed as “No changes”. For the same compound, on TbTR [7], the “mode of inhibition versus TS2” value is listed as “competitive with TS2”.
Regarding `O=C(CCCN1CCC2(CC1)C(=O)NCN2c1ccccc1)c1ccc(F)cc1` [Compound 5, Spiperone, reference compound], in [3] (luminescence assay, n=4, dose-response from 85 μM, read-out: TbTR assay IC50), the IC50 is above 85 µM.
With `O=C(CCN1CN(c2ccccc2)C2(CCNCC2)C1=O)NC(c1ccccc1)c1ccccc1` [Compound 18], the IC50 in data set [3] (setting [8]) was above 85 µM.
